Measured values as given in US20240262835A1, “PRMT5 INHIBITING COMPOUNDS AND USES THEREOF” (ANTENGENE DISCOVERY LIMITED, priority 2023, published 2024).
Like-named read-outs stand apart in the source and are kept apart here.

Legend:
[1] = molecular target: hERG potassium ion channel (Homo sapiens (Human), UniProt Q12809); assay: hERG potassium ion channel inhibition assay (automated patch-clamp, CHO-hERG cells); format: cell-based; details: Qpatch, highest test concentration 40.00 μM
Method: Drug-hERG interaction was measured by automated patch-clamp methods, with cisapride as positive control.
1.1 CHO-hERG cells were cultured in 175 cm^2 culture bottle. After the cell density grew to 60-80%, the culture medium was removed, washed with 7 mL of phosphate buffered saline (PBS), and then digested with 3 mL Detachin.
1.2 After the digestion was complete, 7 mL culture solution was added for neutralization, and then centrifuged, the clear solution was sucked, and 5 mL culture solution was added for re-suspension to ensure the cell density was 2˜5×10^6/mL.
The process of single-cell high-impedance sealing and whole-cell pattern formation was all automatically completed by Qpatch instrument. After obtaining whole-cell recording mode, the cell was pinching at −80 millivolts. Before giving a 5-second +40 millivolt depolarization stimulus, a 50-millisecond pre-voltage of −50 millivolts was given first, and then repolarized to −50 millivolts for 5 seconds. Go back to −80 millivolts. This voltage stimulation was applied every 15 seconds, recorded for 2 minutes, then extracellular fluid was given and recorded for 5 minutes, and then the administration process began. The concentration of test compound was given from the lowest test concentration for 2.5 minutes per test concentration. After continuous administration of all concentrations, the positive control 3 μM cisapride was given. At least 2 cells were tested for each concentration (n≥2).
4.1 The compound mother liquor was diluted with DMSO, and 10 μL compound stock solution was added to 20 μL DMSO solution, which was continuously 3-fold diluted to 6 DMSO-concentrations.
4.2 4 μL of test compounds in 6 DMSO-concentrations were added to 396 μL extracellular solution and were 100-fold diluted to 6 intermediate concentrations. Then, 80 μL of test compounds in 6 intermediate concentrations were added to 320 μL extracellular solution and were 5-fold diluted to the final concentration to be tested.
4.3 The highest test concentration was 40.00 μM, and six test concentrations were 40.00, 13.33, 4.44, 1.48, 0.49, 0.16 μM, respectively.
4.5 Entire dilution process for test compound preparation was performed by Bravo instrument.
The experimental data were analyzed by GraphPad Prism 5.0 software.

[2] = In vivo pharmacokinetics assay in mice via IV and PO; design: species or system ICR mice; details: for Mean Concentration In brain / Mean Concentration In plasma / B/P ratio: PO (Group 4 design: 30 mg/kg); for B/P ratio: brain to plasma, one value for 2 h and 4 h
Method: Pharmacokinetics assay for test compounds was performed in mice via IV and PO.
Test compound solution was prepared on the day of administration.
Solvent: IV+PO: 5% DMSO+10% Soultol+85% H2O or saline
Species: ICR mice; SPF level.
Source: Beijing Vital River Laboratory Animal Technology Co., Ltd.
Animal selection: Males. No random grouping
Weighed before dosing, calculated dosage according to body weight. For Groups 1-3, the drug was administered intravenously or intragastrically. For Group 4, the drug administered intragastrically.
For Groups 1-3, at 0.083 h, 0.25 h, 0.5 h, 1 h, 2 h, 4 h, 6 h, 8 h, 24 h, after administration. For Group 4, at 2 h and 4 h after administration.
Blood was collected through the cheeks. For each sample, about 0.05 mL of blood was collected and was added heparin sodium or EDTA-2K as anticoagulant, and was placed on wet ice.
The blood samples were collected and placed on ice and was centrifuged within 1 hour (centrifugation: 6000 g, 3 minutes, 2-8° C.) to separate plasma. Plasma samples were stored in a −80° C. refrigerator prior to analysis.
The pharmacokinetic parameters were calculated using Phoenix WinNonlin8.2.0 based on the blood concentration data at different time points, and AUC0-t, AUC0-∞, MRT0-∞, Cmax, Tmax, and T1/2 and mean values and standard deviations thereof were provided.

[3] = test system: human colon cancer cell line HCT116 (MTAP KO); assay: In vivo efficacy assay, subcutaneous HCT116 MTAP KO xenograft; design: species or system Balb/C nude female mouse; details: 15 mg/kg PO/QD, 21 days, Balb/C nude mice
Method: The antitumor effect or MTAP/MTA selectivity of the compounds provided herein in the subcutaneously transplanted Balb/C nude female mouse model of human colon cancer cell line HCT116 (WT and MTAP KO) was tested.
Cell viability and cell count were determined. Cell count of the suspension was adjusted to 1×10^8 cells/mL and mixed with Matrigel in a 1:1 volume. Each mouse for this study were inoculated subcutaneously in the right front flank region with 5×10^6 tumor cells (0.1 mL) for tumor development.
The randomization started when the mean tumor size reaches approximately 100-150 mm^3. Mice inoculated with HCT116 WT cells were randomized on day 7. Mice inoculated with HCT116 MTAP KO cells were randomized on day 8. All animals were randomly allocated to 5 study groups, each group consisted of 8 animals. Randomization was performed based on randomized block design.
Tumor volume was measured twice per week in two dimensions using a caliper, and the volume was expressed in mm^3 using the formula: “V=(L×W×W)/2”, where V is tumor volume, L is tumor length (the longest tumor dimension) and W is tumor width (the longest tumor dimension perpendicular to L).

[4] = test system: cryopreserved hepatocytes
Method: 1) 10 mM test compounds were provided.
(§1) 2) 30 mM positive control stock solutions: Dissolved accurate amount of positive control compounds in dimethyl sulfoxide (DMSO).
(§2) 3) 1000× Stock Solution: Diluted 10 mM test compounds and 30 mM positive control compounds to 1 mM and 3 mM with DMSO in 96-well plates.
(§3) 4) 100× Dosing Solution: Diluted 1 mM test compounds and 3 mM positive control compounds to 100 μM and 300 μM dosing solutions with ACN.
(§4) 5) Preparation of 0.5×10^6/mL cells suspension: cryopreserved cells were thawed, isolated and suspended in Incubation Medium, then diluted with pre-warmed Incubation Medium to 0.5×10^6 cells/mL.
(§5) 6) Add 198 μL of pre-warmed cell suspensions in 96-well plates.
(§6) 7) Preparation of Quenching Plate: Transfer 125 μL of stop solution in a set of pre-labeled 96-well plates.
(§7) 8) Spike 2 μL dosing solution to each well of 96-well plates in duplicate.
(§8) 9) For TO Samples, mix to achieve a homogenous suspension for about 1 min, then immediately transfer 25 μL of each sample into well containing 125 μL of ice-cold stop solution followed by mixing.
(§9) 10) Incubate all plates at 37° C. in a 95% humidified incubator at 5% CO2 to start the reactions with constant shaking.
(§10) 11) At 15, 30, 60 and 90 min, mix samples and then transfer 25 μL of each sample at each time point to well containing 125 μL of ice-cold stop solution followed by mixing.
(§11) 12) Medium Control (MC) sample plates (labeled as TO-MC and T90-MC) are prepared in the same way as cell incubation except that medium was used instead of cell suspension.
(§12) 13) At each corresponding time point, stop the reactions by removing the plates from incubator and mixing with 125 μL of ice-cold stop solution.
(§13) 14) Vortex the plates immediately on a plate shaker at 600 rpm for 10 minutes. Then, centrifuge all sample plates at 3220×g for 20 min at 4° C.
(§14) 15) After centrifugation, 80 μL/well of supernatant in the sample plates are transferred to another set of pre-labeled 96-well plates which containing 240 μL of ultra pure water according to the plate map.
(§15) 16) Analytical plates are sealed and store at 4° C. until LC-MS/MS analysis.
(§16) The remaining percents of test articles after incubation were calculated by the follow equations:
(§17) Use the following equation of first order kinetics to calculate T1/2 and CLint:

[5] = microsomes; for T1/2 of LMS, H / CLint (mic) H: human
[6] = test system: cryopreserved hepatocytes; assay: Hepatic metabolic stability (HMS) assay, rat hepatocytes; details: for T1/2 (hepatocytes) R / CLint (liver) R: rat hepatocytes; for T1/2 (hepatocytes) R: 1 μM test compound (3 μM positive control); for CLint (liver) R: scaled to liver; for CLint (hep) R: rat, hepatocytes
[7] = test system: cryopreserved hepatocytes; assay: Hepatic metabolic stability (HMS) assay, human hepatocytes; details: for T1/2 (hepatocytes) H / CLint (liver) H: human hepatocytes; for T1/2 (hepatocytes) H: 1 μM test compound (3 μM positive control); for CLint (liver) H: scaled to liver; for CLint (hep) H: human, hepatocytes
Method: 1) 10 mM test compounds were provided.
as §1, §2, §3, §4, §5, §6, §7, §8, §9, §10, §11, §12, §13, §14, §15, §16, §17

[8] = test system: cryopreserved hepatocytes; assay: Hepatic metabolic stability (HMS) assay, cynomolgus monkey hepatocytes; details: for T1/2 (hepatocytes) C / CLint (liver) C: cynomolgus monkey hepatocytes; for T1/2 (hepatocytes) C: 1 μM test compound (3 μM positive control); for CLint (liver) C: scaled to liver; for CLint (hep) C: cynomolgus monkey, hepatocytes
[9] = Liver microsome metabolic stability (LMS) assay, dog
[10] = Liver microsome metabolic stability (LMS) assay, human

hERG potassium ion channel, sequence (Q12809 whole entry): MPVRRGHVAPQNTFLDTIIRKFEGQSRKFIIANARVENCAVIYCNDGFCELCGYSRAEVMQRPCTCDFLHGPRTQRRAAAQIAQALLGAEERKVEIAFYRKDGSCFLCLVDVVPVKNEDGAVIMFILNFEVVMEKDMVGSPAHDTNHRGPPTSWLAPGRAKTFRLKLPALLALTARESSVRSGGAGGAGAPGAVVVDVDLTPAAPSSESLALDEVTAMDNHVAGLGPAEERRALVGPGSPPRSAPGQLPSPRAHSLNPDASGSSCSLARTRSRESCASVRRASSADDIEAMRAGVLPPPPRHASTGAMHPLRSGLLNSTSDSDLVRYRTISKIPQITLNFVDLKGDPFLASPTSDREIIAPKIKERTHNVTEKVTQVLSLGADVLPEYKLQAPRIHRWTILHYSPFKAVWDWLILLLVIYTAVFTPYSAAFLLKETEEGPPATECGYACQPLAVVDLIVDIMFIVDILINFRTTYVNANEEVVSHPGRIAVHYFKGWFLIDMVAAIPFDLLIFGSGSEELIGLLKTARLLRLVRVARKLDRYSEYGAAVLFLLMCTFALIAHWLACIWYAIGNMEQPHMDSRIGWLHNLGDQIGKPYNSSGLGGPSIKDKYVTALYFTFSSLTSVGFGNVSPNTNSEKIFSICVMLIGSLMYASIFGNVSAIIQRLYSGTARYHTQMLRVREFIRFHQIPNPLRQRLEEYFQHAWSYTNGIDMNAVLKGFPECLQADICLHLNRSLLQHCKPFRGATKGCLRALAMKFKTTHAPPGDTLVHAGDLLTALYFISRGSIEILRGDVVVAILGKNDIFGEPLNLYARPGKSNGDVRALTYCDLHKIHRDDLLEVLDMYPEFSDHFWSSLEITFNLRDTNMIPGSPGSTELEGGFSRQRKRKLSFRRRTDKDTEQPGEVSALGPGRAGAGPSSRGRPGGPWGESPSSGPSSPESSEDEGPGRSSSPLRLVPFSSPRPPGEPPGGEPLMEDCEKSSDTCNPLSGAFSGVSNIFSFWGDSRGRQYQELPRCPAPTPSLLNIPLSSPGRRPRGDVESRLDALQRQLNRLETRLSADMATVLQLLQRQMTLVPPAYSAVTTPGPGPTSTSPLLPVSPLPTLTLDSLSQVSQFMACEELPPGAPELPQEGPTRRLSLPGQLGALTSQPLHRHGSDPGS

| SMILES | IC50 [1] [µM] | Cl ([2]; IV 1.0 mg/kg) [mL/min/kg] | AUC0-t ([2]; PO 10 mg/kg) [ng·h/mL] | T1/2 ([2]; PO 10 mg/kg) [h] | C8 h ([2]; PO 10 mg/kg, plasma) [ng/mL] | C24 h ([2]; PO 10 mg/kg, plasma) [ng/mL] | Cmax ([2]; PO 10 mg/kg, plasma) [ng/mL] | AUC0-t ([2]; PO 30 mg/kg) [ng·h/mL] | T1/2 ([2]; PO 30 mg/kg) [h] | C8 h ([2]; PO 30 mg/kg, plasma) [ng/mL] | C24 h ([2]; PO 30 mg/kg, plasma) [ng/mL] | Cmax ([2]; PO 30 mg/kg, plasma) [ng/mL] | Tumor growth inhibition (TGI) HCT 116 MTAP KO [3] [%] | T1/2 of LMS, H [5] [h] | T1/2 (hepatocytes) R [6] [h] | CLint (liver) R [6] [mL/min/kg] | CLint (hep) R [6] [μL/min/10^6] | T1/2 (hepatocytes) H [7] [h] | CLint (liver) H [7] [mL/min/kg] | CLint (hep) H [7] [μL/min/10^6] | also measured |
| --- | --- | --- | --- | --- | --- | --- | --- | --- | --- | --- | --- | --- | --- | --- | --- | --- | --- | --- | --- | --- | --- |
| CN(C(=O)c1ccc2nc(N)c3cncn3c2c1)[C@@H]1COc2cc(C(F)(F)F)ccc21 [Compound 12] | 5.38 | – | – | – | – | – | – | – | – | – | – | – | – | – | – | – | – | – | – | – | clearance ([2]; male, ICR, mouse, plasma, IV 1.0 mg/kg): 3.48 mL/min/kg |
| CN(C(=O)c1ccc2nc(N)c3cncn3c2c1)C1COc2cc(C(F)(F)F)ccc21 (centres unmarked) [Compound 17] | 12.8 | 3.10 | 50800 | 5.07 | 2287 | 257 | 4627 | 174589 | 4.87 | 8260 | 860 | 16233 | −11 | >2.42 | – | – | – | – | – | – | AUC0-t ([2]; IV 1.0 mg/kg): 5219 ng·h/mL; T1/2 ([2]; IV 1.0 mg/kg): 5.05 h; Cmax ([2]; IV 1.0 mg/kg, plasma): 965 ng/mL; Mean Concentration In brain ([2]; 2 h): 3308 ± 1056 ng/g; Mean Concentration In plasma ([2]; 2 h): 14843 ± 4945 ng/mL; Mean Concentration In brain ([2]; 4 h): 2668 ± 224 ng/g; Mean Concentration In plasma ([2]; 4 h): 13667 ± 1365 ng/mL; B/P ratio [2]: 21%; CLint (liver) H [4]: 20.2 mL/min/kg; CLint (hep) H ([4]; human): 7.3 μL/min/10^6; T1/2 (hepatocytes) H ([4]; human): 3.18 h |
| CN(C(=O)c1cc2c(cn1)nc(N)c1cncn12)C1COc2cc(C(F)(F)F)ccc21 (centres unmarked) [Compound 19] | 13.5 | 4.38 | 32782 | 4.88 | 1833 | 178 | 2620 | 94249 | 5.26 | 4817 | 540 | 8117 | 11 | >2.42 | 2.443 | 44.3 | 9.5 | >3.613 | <17.8 | <6.4 | CLint (mic) H [5]: <9.6 µL/min/mg; CLint (liver) H [5]: <8.6 mL/min/kg; T1/2 (hepatocytes) C [8]: 3.552 h; CLint (liver) C [8]: 23.4 mL/min/kg; CLint (hep) C [8]: 6.5 μL/min/10^6 |
| CN(C(=O)c1cc2c(cn1)nc(N)c1cncn12)C1COc2cc(C(F)(F)F)ccc21 (centres unmarked) [Compound 21] | 13.6 | 3.94 | 43397 | 6.67 | 2537 | 415 | 2820 | 124997 | 6.45 | 6880 | 1257 | 8710 | 11 | >2.42 | 2.983 | 36.2 | 7.7 | >3.613 | <17.8 | <6.4 | CLint (mic) H [5]: <9.6 µL/min/mg; CLint (liver) H [5]: <8.6 mL/min/kg; T1/2 (hepatocytes) C [8]: >3.613 h; CLint (liver) C [8]: <23 mL/min/kg; CLint (hep) C [8]: <6.4 μL/min/10^6 |
| CN(C(=O)c1cc2c(cn1)nc(N)c1cncn12)C1CC(F)(F)c2cc(C(F)(F)F)ccc21 (centres unmarked) [Compound 24] | 24.8 | 2.41 | 44942 | 4.41 | 2598 | 186 | 3355 | – | – | – | – | – | 3 | – | 1.797 | 60.2 | 12.9 | >3.613 | <17.8 | <6.4 | AUC0-t ([2]; PO 50 mg/kg): 130284 ng·h/mL; T1/2 ([2]; PO 50 mg/kg): 3.23 h; C8 h ([2]; PO 50 mg/kg, plasma): 4983 ng/mL; C24 h ([2]; PO 50 mg/kg, plasma): 178 ng/mL; Cmax ([2]; PO 50 mg/kg, plasma): 15733 ng/mL; Mean Concentration In brain ([2]; 2 h): 3132 ± 1647 ng/g; Mean Concentration In plasma ([2]; 2 h): 6327 ± 2604 ng/mL; Mean Concentration In brain ([2]; 4 h): 3084 ± 145 ng/g; Mean Concentration In plasma ([2]; 4 h): 5983 ± 361 ng/mL; B/P ratio [2]: 51%; CLint (mic) D ([9]; dog liver microsome): <9.6 µL/min/mg; T1/2 of LMS, D ([9]; dog liver microsome 0.5 mg protein/mL, 1 μM, NADPH): >2.42 h; CLint (liver) D ([9]; dog liver microsome, scaled to liver): <13.8 mL/min/kg; CLint (mic) H ([10]; human liver microsome): <9.6 µL/min/mg; T1/2 of LMS, H ([10]; human liver microsome 0.5 mg protein/mL, 1 μM, NADPH): >2.42 h; CLint (liver) H ([10]; human liver microsome, scaled to liver): <8.6 mL/min/kg; T1/2 (hepatocytes) C [8]: 2.193 h; CLint (liver) C [8]: 37.9 mL/min/kg; CLint (hep) C [8]: 10.5 μL/min/10^6 |
